The source of these data is US6982260B1, “Quinazolines and their use for inhibiting cyclin-dependent kinase enzymes” (Warner-Lambert Company, priority 1999, dated 2006).

pIC50: −log10 of the molar value. Like-named read-outs stand apart in the source and are kept apart here.

The target of series [1] is cdc2/cyclinB (Homo sapiens, UniProt P06493). Nature of the series: cdc2/cyclinB kinase assay (Table 1, CdkB). The format is biochemical. The conditions noted are these: 32P incorporation into retinoblastoma, 25° C., 15 minutes. As to the method: (§1) All components except the ATP were added to the wells, and the plate was placed on a plate mixer for 2 minutes. The reaction was begun by addition of [^32P]ATP, and the plate was incubated at 25° C. for 15 minutes. The reaction was terminated by addition of 0.1 mL of 20% TCA. The plate was kept at 4° C. for at least 1 hour to allow the substrate to precipitate. The wells were then washed five times with 0.2 mL of 10% TCA and ^32P incorporation determined with a beta plate counter (Wallac Inc., Gaithersburg, Md.).

For series [2], the target named is cdk4/D (Homo sapiens, UniProt P11802). Nature of the series: Cyclin-Dependent Kinase 4 (cdk4) Assay. It is filed as biochemical. As to the method:
As noted above, the compounds of this invention are potent inhibitors of cyclin-dependent kinases, and accordingly, are useful in treating and preventing neurodegenerative disorders, atherosclerosis, and other cell proliferative disorders like cancer. […] A typical assay, for instance, measures inhibitory activity against the cyclin D dependent kinase 4 enzyme (cdk4/D). […] The cdk4 assay was carried out as follows.
Cyclin-Dependent Kinase 4 (cdk4) Assay
Enzyme assays for IC50 determinations (Table 1 above) and kinetic evaluation were performed in 96 well filter plates (Millipore MADVN6550). The total volume was 0.1 mL containing a final concentration of 20 mM TRIS (tris[hydroxymethyl]aminomethane), at pH 7.4, 50 mM NaCl, 1 mM dithiothreitol, 10 mM MgCl2, 25 μM ATP containing 0.25 μCi of [^32P]ATP, 20 ng of cdk4, 1 μg of retinoblastoma, and appropriate dilutions of a compound of the present invention. All components except the ATP were added to the wells, and the plate was placed on a plate mixer for 2 minutes. The reaction was started by adding [^32P]ATP and the plate was incubated at 25° C. for 15 minutes. The reaction was terminated by addition of 0.1 mL of 20% trichloroacetic acid (TCA). The plate was kept at 4° C. for at least 1 hour to allow the substrate to precipitate. The wells were then washed five times with 0.2 mL of 10% TCA and ^32P incorporation was determined with a beta plate counter (Wallac Inc., Gaithersburg, Md.).

Series [3] deals with cdk2/cyclinE (Homo sapiens, UniProt P24941). Put plainly: cdk2/cyclinE kinase assay. It is filed as biochemical. The conditions noted are these: 32P incorporation into retinoblastoma, 25° C., 15 minutes; read-out: Cdk2E IC50. As to the method:
as §1

The target in series [4] is cdk2/A (Homo sapiens, UniProt P24941). Put plainly: cdk2/A kinase assay. The format is biochemical. The note with it: 32P incorporation into retinoblastoma, 25° C., 15 minutes; read-out: Cdk2A IC50. As to the method: as §1
Where [5] appears, read: 25 μM ATP, retinoblastoma substrate, 25° C., 15 minutes, read-out: Cdk4 IC50.

cdk4/D, sequence (P11802 whole entry, species assumed): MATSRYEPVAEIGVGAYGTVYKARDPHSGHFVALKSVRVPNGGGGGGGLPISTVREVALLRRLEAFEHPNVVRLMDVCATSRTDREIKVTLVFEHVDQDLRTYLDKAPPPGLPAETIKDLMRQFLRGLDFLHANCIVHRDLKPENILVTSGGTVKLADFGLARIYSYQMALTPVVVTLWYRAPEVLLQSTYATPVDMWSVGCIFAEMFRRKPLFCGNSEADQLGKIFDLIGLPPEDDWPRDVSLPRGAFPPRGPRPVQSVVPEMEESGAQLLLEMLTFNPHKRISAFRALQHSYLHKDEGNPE
cdk4/D, sequence (P24385 whole entry partner, species assumed): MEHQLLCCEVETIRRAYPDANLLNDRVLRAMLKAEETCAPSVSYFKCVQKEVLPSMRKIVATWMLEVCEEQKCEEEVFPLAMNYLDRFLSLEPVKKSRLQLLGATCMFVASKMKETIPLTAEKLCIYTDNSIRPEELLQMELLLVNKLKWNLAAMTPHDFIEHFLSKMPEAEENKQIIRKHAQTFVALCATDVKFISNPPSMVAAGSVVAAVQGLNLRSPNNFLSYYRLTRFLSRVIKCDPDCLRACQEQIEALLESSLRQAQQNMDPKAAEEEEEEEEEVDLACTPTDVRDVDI
cdc2/cyclinB, sequence (P06493 whole entry, species assumed): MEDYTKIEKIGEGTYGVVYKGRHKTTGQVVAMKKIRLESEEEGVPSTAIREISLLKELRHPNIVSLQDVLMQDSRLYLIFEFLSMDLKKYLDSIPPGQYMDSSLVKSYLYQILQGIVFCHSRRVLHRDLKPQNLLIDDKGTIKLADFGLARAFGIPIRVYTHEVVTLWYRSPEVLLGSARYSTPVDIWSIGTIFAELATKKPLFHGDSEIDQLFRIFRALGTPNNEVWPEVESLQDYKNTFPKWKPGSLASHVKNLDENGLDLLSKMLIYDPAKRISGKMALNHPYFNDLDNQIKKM
cdc2/cyclinB, sequence (P14635 whole entry partner, species assumed): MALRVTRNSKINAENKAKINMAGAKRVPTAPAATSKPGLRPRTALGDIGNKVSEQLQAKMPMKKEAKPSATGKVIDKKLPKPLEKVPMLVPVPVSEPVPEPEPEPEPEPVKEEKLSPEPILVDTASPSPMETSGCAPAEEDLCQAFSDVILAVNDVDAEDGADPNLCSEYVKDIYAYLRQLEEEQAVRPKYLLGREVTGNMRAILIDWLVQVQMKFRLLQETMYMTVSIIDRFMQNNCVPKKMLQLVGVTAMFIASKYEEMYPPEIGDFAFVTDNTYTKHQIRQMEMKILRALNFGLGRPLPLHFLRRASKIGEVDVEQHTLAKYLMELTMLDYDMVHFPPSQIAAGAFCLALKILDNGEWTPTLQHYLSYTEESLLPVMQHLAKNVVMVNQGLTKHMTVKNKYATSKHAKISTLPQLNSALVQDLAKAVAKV

For `COc1ccc2cnc(Nc3ccc(N4CCCC4)cc3)nc2c1C1CCCC1` [Example 24, (8-Cyclopentyl-7-methoxy-quinazolin-2-yl)-(4-pyrrolidin-1-yl-phenyl)-amine], the melting point (as a rule, the temperature of the solid-liquid transition) lay within 240 to 242 °C. For the same compound, the negative logarithm of the IC50 (pIC50) (as a rule, −log10 of the IC50, conventionally taken in molar units) in series [1] was less than 5.30. Moreover, the pIC50 in series [2] was 5.76.

Consider “(8-Isopropyl-7-methoxy-quinazolin-2-yl)-(4′-methoxy-biphenyl-4-yl)-amine [Example 36]”, for which the pIC50 was less than 5.30 in series [3] and 6.65 in series [2] (setting [5]).

`COc1ccc2cnc(Nc3ccc(N4CCN(C(=O)C(N)CC(C)C)CC4)cc3)nc2c1C1CCCC1` (centres unmarked) [Example 42, 2-Amino-1-{4-[4-(8-cyclopentyl-7-methoxy-quinazolin-2-ylamino)-phenyl]-piperazin-1-yl}-4-methyl-pentan-1-one] yielded a melting point of 130 to 132 °C. Moreover, the pIC50 in series [1] was 6.48. The pIC50 in series [4] is 6.99. Besides, in series [3], the pIC50 was 6.30.

Compound `CC(C)c1c(O)ccc2cnc(Nc3ccccc3)nc12` [Example 29, 8-Isopropyl-2-phenylamino-quinazolin-7-ol] had a melting point of 103 to 104 °C. This compound also showed a negative logarithm of the IC50 (pIC50) in series [1] of 6.09. Further, the pIC50 in series [4] is 6.60. Further, in series [3], the negative logarithm of the IC50 (pIC50) was 6.26. The compound also had a pIC50 in series [2] of 6.49.

Consider `COc1ccc2cnc(Nc3ccc(N4CCN(C(=O)OC(C)(C)C)CC4)cc3)nc2c1C1CCCC1` [Example 26, 4-[4-(8-Cyclopentyl-7-methoxy-quinazolin-2-ylamino)-phenyl]-piperazine-1-carboxylic Acid Tert-butyl Ester], for which the melting point fell in the range of 183 to 184 °C. Further, the pIC50 in series [1] is 5.38. Besides, the negative-log IC50 (pIC50) in series [4] is 6.19. Also, in series [2] (setting [5]), the pIC50 was 7.29.

For `COc1ccc2cnc(Nc3ccc(N4CCN(C(=O)OC(C)(C)C)CC4)cc3)nc2c1C(C)C` [Example 25, 4-[4-(8-Isopropyl-7-methoxy-quinazolin-2-ylamino)-phenyl]-piperazine-1-carboxylic Acid Tert-butyl Ester], the melting point lay within 173 to 175 °C. In series [1], this compound showed a negative-log IC50 (pIC50) of 4.99. Also, the pIC50 in series [4] was 5.79. For the same compound, in series [3], the pIC50 is 5.00. In addition, the negative-log IC50 (pIC50) in series [2] (setting [5]) was 7.20.

`COc1ccc2cnc(Nc3ccc(N4CCCC4)cc3)nc2c1C(C)C` [Example 22, (8-Isopropyl-7-methoxy-quinazolin-2-yl)-(4-pyrrolidin-1-yl-phenyl)-amine] gave a melting point of 188 to 190 °C. For the same compound, in series [1], the negative-log IC50 (pIC50) is less than 5.30. The negative-log IC50 (pIC50) in series [4] is 5.80. In addition, in series [3], the pIC50 is less than 5.30. The compound further gave a negative logarithm of the IC50 (pIC50) in series [2] of 6.25.

On to `COc1ccc2cnc(Nc3ccc(N4CCN(C(C)=O)CC4)cc3)nc2c1C1CCCC1` [Example 20, 1-{4-[4-(8-Cyclopentyl-7-methoxy-quinazolin-2-ylamino)-phenyl]-piperazin-1-yl}-ethanone], for which the melting point was 247 to 249 °C. Also, the negative logarithm of the IC50 (pIC50) in series [1] was less than 5.30. In series [4], the negative-log IC50 (pIC50) was 7.30. Moreover, the pIC50 in series [3] is 6.58. Further, in series [2], the pIC50 was 8.70.

With `COc1ccc2cnc(Nc3ccc(N4CCNCC4)cc3)nc2c1C(C)C` [Example 34, (8-Isopropyl-7-methoxy-quinazolin-2-yl)-(4-piperazin-1-yl-phenyl)-amine], the pIC50 in series [1] was 6.30; in series [4], 6.73; in series [3], 5.92; in series [2], 7.80.

`COc1ccc2cnc(Nc3ccc(N4CCNCC4)c(F)c3)nc2c1C1CCCC1` [Example 50, (8-Cyclopentyl-7-methoxy-quinazolin-2-yl)-(3-fluoro-4-piperazin-1-yl-phenyl)-amine] returned a melting point of 228 to 229 °C. In series [1], this compound showed a negative-log IC50 (pIC50) of 6.67. In addition, in series [4], the pIC50 was 7.21. In addition, the negative logarithm of the IC50 (pIC50) in series [3] was 6.52. For the same compound, the negative logarithm of the IC50 (pIC50) in series [2] is 8.40.

For “(8-Isopropyl-7-methoxy-quinazolin-2-yl)-(4-piperidin-1-yl-phenyl)-amine [Example 47]”, the pIC50 was 5.97 in series [1], 6.58 in series [4], 5.39 in series [3] and 7.12 in series [2] (setting [5]).

As for `COc1ccc2cnc(Nc3ccc(N4CCN(C(=O)CN)CC4)cc3)nc2c1C1CCCC1` [Example 40, 2-Amino-1-{4-[4-(8-cyclopentyl-7-methoxy-quinazolin-2-ylamino)-phenyl]-piperazin-1-yl}-ethanone], the melting point was determined as 202 °C. Also, the pIC50 in series [1] was 6.57. In addition, in series [4], the pIC50 was 7.02. The pIC50 in series [3] was 6.35. Moreover, the negative logarithm of the IC50 (pIC50) in series [2] was 8.70.

Turning to `COc1ccc2cnc(Nc3ccc(N4CCNCC4)cc3)nc2c1C1CCCC1` [Example 27, (8-Cyclopentyl-7-methoxy-quinazolin-2-yl)-(4-piperazin-1-yl-phenyl)-amine], the pIC50 in series [1] was 6.88; in series [4], 7.55; in series [3], 6.60; in series [2] (setting [5]), 9.00.

As for `COc1ccc2cnc(Nc3ccc(N4CCCCC4)c(F)c3)nc2c1C1CCCC1` [Example 49, (8-Cyclopentyl-7-methoxy-quinazolin-2-yl)-(3-Fluoro-4-piperidin-1-yl-phenyl)-amine], the melting point was in the range of 200 to 201 °C. The pIC50 in series [1] was less than 5.30. Moreover, the pIC50 in series [3] was 5.10. Besides, the pIC50 in series [2] (setting [5]) was 7.07.

Regarding `COc1ccc2cnc(Nc3ccc(N4CCC(N)C4)cc3)nc2c1C(C)C` (centres unmarked) [Example 37, [4-(3-Amino-pyrrolidin-1-yl)-phenyl]-(8-isopropyl-7-methoxy-quinazolin-2-yl)-amine], the pIC50 was 5.89 in series [1], 6.53 in series [4], 5.59 in series [3] and 7.96 in series [2].

Compound `COc1ccc2cnc(Nc3ccc(N4CCC(N)C4)cc3)nc2c1C1CCCC1` (centres unmarked) [Example 41, [4-(3-Amino-pyrrolidin-1-yl)-phenyl]-(8-cyclopentyl-7-methoxy-quinazolin-2-yl)-amine] registered a melting point of 220 to 221 °C. The negative-log IC50 (pIC50) in series [1] is 6.40. For the same compound, the negative logarithm of the IC50 (pIC50) in series [4] was 6.69. Also, the pIC50 in series [3] is 6.02. The compound also showed a pIC50 in series [2] of 6.94.

As to `COc1ccc2cnc(Nc3ccc(N4CCOCC4)cc3)nc2c1C(C)C` [Example 39, (8-Isopropyl-7-methoxy-quinazolin-2-yl)-(4-morpholin-4-yl-phenyl)-amine], the negative-log IC50 (pIC50) in series [1] was 5.71; in series [4], 6.18; in series [3] it was 5.36; in series [2] it was 7.28.

`COc1ccc2cnc(Nc3ccc(N4CCOCC4)c(F)c3)nc2c1C(C)C` [Example 38, (3-Fluoro-4-morpholin-4-yl-phenyl)-(8-isopropyl-7-methoxy-quinazolin-2-yl)-amine] returned a melting point of 202 to 203 °C. The compound further had a pIC50 in series [1] of 5.91. Moreover, the pIC50 in series [4] is 6.35. For the same compound, the pIC50 in series [3] was 5.56.

`COc1ccc2cnc(Nc3ccc(N4CCN(C(C)=O)CC4)cc3)nc2c1C(C)C` [Example 33, 1-{4-[4-(8-Isopropyl-7-methoxy-quinazolin-2-ylamino)-phenyl]-piperazin-1-yl}-ethanone] yielded a melting point of 197 to 198 °C. Further, the pIC50 in series [3] is 6.05. In series [2], this compound gave a pIC50 of 7.60.

In the case of `COc1ccc2cnc(Nc3ccccc3)nc2c1C1CCCC1` [Example 17, (8-Cyclopentyl-7-methoxy-quinazolin-2-yl)-phenyl-amine], the melting point fell in the range of 187 to 188 °C.
